Assay results taken from patent EP1038864A1, “NOVEL METALLOPROTEINASE INHIBITORS” (FUJI YAKUHIN KOGYO KABUSHIKI KAISHA, priority 1997, dated 1999).
Like-named read-outs stand apart in the source and are kept apart here.

Legend:
[1] = molecular target: T1, human fibroblast collagenase (Homo sapiens, UniProt P03956); experiment: Assay for inhibition of collagenase (fluorescein-labeled bovine type I collagen substrate); format: biochemical
T1 sequence (P03956 100-469): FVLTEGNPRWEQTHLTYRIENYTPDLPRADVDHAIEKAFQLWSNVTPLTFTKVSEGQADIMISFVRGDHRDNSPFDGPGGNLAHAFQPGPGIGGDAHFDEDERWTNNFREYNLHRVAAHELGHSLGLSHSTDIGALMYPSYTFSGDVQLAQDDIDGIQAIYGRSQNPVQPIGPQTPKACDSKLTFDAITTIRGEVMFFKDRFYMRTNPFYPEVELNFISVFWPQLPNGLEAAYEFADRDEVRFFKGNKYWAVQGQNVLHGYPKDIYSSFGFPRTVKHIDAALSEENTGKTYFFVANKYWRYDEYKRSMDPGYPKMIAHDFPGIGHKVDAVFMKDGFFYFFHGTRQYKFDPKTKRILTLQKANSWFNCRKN
Description: (§1) Described below are assays for biological activities of the compounds according to the present invention, formulations, dosage forms and dosage levels thereof, and miscellaneous matters. The efficacy of the compounds represented by the formula (I) according to the present invention as inhibitors of human fibroblast collagenase (metalloproteinase involved in the breakdown of tissues) is determined by a procedure based on the method of Y. Murawaki et al., Journal of Hepatology, 18, p328-334 (1993). The efficacy of the compounds (I) of this invention as inhibitors of human fibroblast stromelysin is determined by a procedure based on the method of S. S. Twining, Anal. Biochem., 143, p30 (1984). The assay results obtained are shown hereinbelow, together with biological examples which illustrate embodiments of the assay protocols.
The efficacy of compounds of the present invention to act as inhibitors of human fibroblast collagenase was determined by the procedure of Y. Murawaki et al. (Journal of Hepatology, 18, p.328-334, 1993), compared with a reference compound.
Procollagenase was activated by incubation with 2 mM 4-aminophenylmercuric acetate (APMA) at 35°C for 2 hours. The inhibition was assayed using, as a substrate, fluorescein-labeled bovine type I collagen. To a solution of the substrate (0.5 mg/ml) in a 50 mM Tris-HCl buffer, pH 7.5, containing 0.4M aqueous sodium chloride and 10 mM aqueous […] was added the activated collagenase. The resultant solution was incubated at 35°C for 2 hours. The digestion of the substrate with the enzyme was stopped by addition of 80 mM o-phenanthroline, followed by addition of a porcine elastase solution formed by dissolving 25 µg/ml porcine elastase in the aforementioned Tris-HCl buffer. The mixture was incubated at 37°C for 10 minutes. To the resulting solution was added 70% ethanol, and a 170 mM Tris-HCl buffer, pH 9.5, containing 0.67M aqueous sodium chloride. Undigested substrates were precipitated by centrifugation at 3000 x g for 20 minutes. The supernatant was collected and the fluorescence was read using an excitation wavelength of 495 nm and an emission wavelength of 520 nm. The inhibitory potency of the compounds was calculated. […] The resulting assay data for representative examples are shown in Table 1, compared with the reference compound. […]

[2] = molecular target: human fibroblast stromelysin (Homo sapiens, UniProt P08254); experiment: Assay for inhibition of stromelysin (fluorescein-labeled casein substrate); format: biochemical
Chain of human fibroblast stromelysin (P08254 100-477): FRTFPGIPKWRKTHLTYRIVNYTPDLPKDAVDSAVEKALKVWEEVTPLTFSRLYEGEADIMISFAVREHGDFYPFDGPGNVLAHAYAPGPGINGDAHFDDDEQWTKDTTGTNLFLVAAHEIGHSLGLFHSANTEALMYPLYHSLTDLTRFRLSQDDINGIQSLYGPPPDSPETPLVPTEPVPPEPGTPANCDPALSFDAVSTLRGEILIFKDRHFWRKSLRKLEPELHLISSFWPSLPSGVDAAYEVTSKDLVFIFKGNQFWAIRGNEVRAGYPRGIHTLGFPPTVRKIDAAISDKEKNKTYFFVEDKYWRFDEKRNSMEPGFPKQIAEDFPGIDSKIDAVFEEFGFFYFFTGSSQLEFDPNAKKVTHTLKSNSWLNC
Description: as §1
The efficacy of compounds of the present invention to act as inhibitors of human fibroblast stromelysin was determined by the procedure of Twining (Anal. Biochem., 143, p.30, 1984), compared with a reference compound.
Prostromelysin was activated by incubation with 20 µg/ml human plasmin at 37°C for 2 hours, and the reaction was stopped by addition of 2.8 mg/ml aqueous diisopropyl fluorophosphate. The inhibition was assayed using, as a substrate, fluorescein-labeled casein. To a solution of the substrate (1 mg/ml) in a 50 mM Tris-HCl buffer, pH 7.8, containing 10mM aqueous calcium chloride was added the activated stromelysin. The resultant solution was incubated at 37°C for 2 hours. The digestion of the substrate with the enzyme was stopped by addition of 5% trichloroacetic acid. Undigested substrates were precipitated by centrifugation at 3000 x g for 20 minutes. The supernatant was collected, followd by additon of a 0.5M Tris-HCl buffer, pH 8.5. The fluorescence was read using an excitation wavelength of 495 nm and an emission wavelength of 520 nm. The inhibitory potency of the compounds was calculated. […] The resulting assay data for representative examples are shown in Table 2, compared with the reference compound.

[3] = molecular target: TNF-α Convertase (Homo sapiens, UniProt P78536); experiment: Assay for inhibition of TNF-α production in LPS-stimulated, PMA-differentiated U937 cells
Chain of TNF-α Convertase (P78536 215-824): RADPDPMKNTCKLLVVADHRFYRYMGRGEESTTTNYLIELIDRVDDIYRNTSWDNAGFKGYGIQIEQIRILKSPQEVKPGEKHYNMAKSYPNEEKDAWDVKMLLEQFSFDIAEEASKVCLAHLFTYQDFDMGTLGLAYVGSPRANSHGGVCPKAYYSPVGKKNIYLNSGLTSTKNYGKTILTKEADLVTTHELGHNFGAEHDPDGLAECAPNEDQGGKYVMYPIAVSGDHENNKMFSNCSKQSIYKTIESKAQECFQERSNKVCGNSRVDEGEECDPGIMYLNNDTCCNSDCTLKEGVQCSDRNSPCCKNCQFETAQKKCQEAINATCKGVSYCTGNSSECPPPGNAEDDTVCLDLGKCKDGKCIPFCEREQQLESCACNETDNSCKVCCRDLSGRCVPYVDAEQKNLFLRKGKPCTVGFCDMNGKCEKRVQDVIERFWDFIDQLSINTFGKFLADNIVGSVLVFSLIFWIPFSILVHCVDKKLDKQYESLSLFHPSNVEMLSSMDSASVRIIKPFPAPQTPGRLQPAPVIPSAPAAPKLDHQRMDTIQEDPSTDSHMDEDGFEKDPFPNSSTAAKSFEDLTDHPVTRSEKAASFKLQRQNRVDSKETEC

[4] = activated human fibroblast procollagenase, 35°C, 2 hours, pH 7.5, read-out: Inhibition of MMP-1
[5] = plasmin-activated human fibroblast prostromelysin, 37°C, 2 hours, pH 7.8, read-out: Inhibition of MMP-3

Row | SMILES | IC50 [1, 4] | other results
1 | CNC(=O)[C@H](CCCNC(=N)N)NC(=O)[C@H](CC(C)C)C(CC(C)C)C(=O)NO (single isomer, unassigned) [Compound No. 24, N^a-[4-(Hydroxyamino)-2(R),3(R or S)-diisobutylsuccinyl]-L-arginine N-methylamide · 1 acetate] | – | IC50 [1]: 5 nM; IC50 [2]: 18 nM; IC50 [3]: 480 nM
2 | CC(=N)NCCCCC(NC(=O)C(CC(C)C)C(CCCc1ccccc1)C(=O)NO)C(=O)NCCO (single isomer, unassigned) [Compound No. 36, N^a-[4-(Hydroxyamino)-2(R)-isobutyl-3(R or S)-(3-phenylpropyl)-succinyl]-N^e-acetimidoyl-L-lysine N-(2-hydroxyethyl)amide · 1 acetate] | 14 nM | IC50 [2, 5]: 9 nM
3 | CNC(=O)[C@H](CCCCN)NC(=O)[C@H](CC(C)C)C(CCCc1cccc(C(=O)OC)c1)C(=O)NO (single isomer, unassigned) [Compound No. 71, N^a-[4-(Hydroxyamino)-2(R)-isobutyl-3(R or S)-[3-(m-methoxycarbonylphenyl)propyl]succinyl]-L-lysine N-methylamide· 1 acetate] | 4 nM | IC50 [3]: 352 nM
4 | CNC(=O)C(CCCN)NC(=O)C(CC(C)C)C(CCCc1ccc(CNC(=N)N)cc1)C(=O)NO (single isomer, unassigned) [Compound No. 81, N^a-[4-(Hydroxyamino)-2(R)-isobutyl-3(R or S)-[3-(p-guanidomethylphenyl)propyl]succinyl]-L-ornithine N-methylamide · 2 acetate] | 13 nM | IC50 [3]: 737 nM
5 | CNC(=O)C(CCCCN)NC(=O)C(CC(C)C)C(CCCN1C(=O)N(C)C(C)(C)C1=O)C(=O)NO (single isomer, unassigned) [Compound No. 82, N^a-[4-(Hydroxyamino)-2(R)-isobutyl-3(R or S)-(3-(3,4,4-trimethyl-2,5-dioxo-imidazolidin-1-yl)propyl]succinyl]-L-lysine N-methylamide] | 4 nM | –
6 | CC(C)CC(C(=O)NO)[C@@H](CC(C)C)C(=O)N[C@@H](Cc1ccc(CN)cc1)C(=O)NCCC(=O)O (single isomer, unassigned) [Compound No. 84, N^a-[4-(Hydroxyamino)-2(R),3(R or S)-diisobutylsuccinyl]-4'-aminomethyl-L-phenylalanine N-(2-carboxyethyl)amide· 1 acetate] | 11 nM | –
7 | CNC(=O)C(CCCNC(=N)N)NC(=O)C(CC(C)C)C(C)C(=O)NO [Compound No. 25, N^a-[4-(Hydroxyamino)-2(R)-isobutyl-3(RS)-methylsuccinyl]-L-arginine N-methylamide · 1 acetate] | 10 nM | –
8 | CNC(=O)C(CCNC(=N)N)NC(=O)C(CC(C)C)C(CC(C)C)C(=O)NO [Compound No. 27, N^4-[3-Guanidino-1(S)-methylcarbamoylpropyl]-N^1-hydroxy-3(R),2(RS)-diisobutylsuccinamide · 1 acetate] | 7 nM | IC50 [2, 5]: 60 nM
9 | CNC(=O)C(CCCCNC(C)=N)NC(=O)C(CC(C)C)C(CCCc1ccccc1)C(=O)NO [Compound No. 30, N^a-[4-(Hydroxyamino)-2(R)-isobutyl-3(RS)-(3-phenylpropyl)-succinyl]-N^e-acetimidoyl-L-lysine N-methylamide · 1 acetate] | 10 nM | IC50 [2]: 12 nM
10 | CC(=N)NCc1ccc(CC(NC(=O)C(CC(C)C)C(CC(C)C)C(=O)NO)C(=O)NCCO)cc1 [Compound No. 91, N^a-[4-(Hydroxyamino)-2(R),3(RS)-diisobutylsuccinyl]-4'-acetimidoyliminomethyl-L-phenylalanine N-(2-hydroxyethyl)amide· 2 acetate] | 17 nM | –
11 | CCCOC[C@H](C(=O)N[C@@H](Cc1ccc(OC)cc1)C(=O)NC)[C@H](CSC(C)C)C(=O)NO [Reference Compound No. 1, N-[4-(N-hydroxyamino)-2(R)-n-propyloxymethyl-3(S)-isopropyl-thiomethylsuccinyl)-O-methyl-L-tyrosine-N-methylamide, reference compound] | 11 nM | –
